Literature values, collected in patent US6703044B1, “Venlafaxine formulations” (priority 2002, dated 2004).
Where a name gives a salt, the structure may show the parent alone.

Conditions: plural daily dosing regimen

patients experiencing nausea: about forty five
patients in whom vomiting occurs: about seventeen
Compound: COc1ccc(C(CN(C)C)C2(O)CCCCC2)cc1 (centres unmarked) [venlafaxine hydrochloride, 1-[(2-dimethylamino)-1-(4-methoxyphenyl)ethyl] cyclohexanol]
